Reference: PMC8080662 (Scientific Reports, 2021)

Assays:
LET-23 = LET-23 (Caenorhabditis elegans, UniProt P24348); test: continuous enzyme-coupled kinase assay on lipid vesicles, percent inhibition; assay type: biochemical
PLK-1 = PLK-1 (Caenorhabditis elegans, UniProt P34331); test: in vitro radiometric kinase assay ([γ-32P]ATP, GST-LMN-1 head substrate); assay type: biochemical
PLK-1, sequence (P34331 whole entry): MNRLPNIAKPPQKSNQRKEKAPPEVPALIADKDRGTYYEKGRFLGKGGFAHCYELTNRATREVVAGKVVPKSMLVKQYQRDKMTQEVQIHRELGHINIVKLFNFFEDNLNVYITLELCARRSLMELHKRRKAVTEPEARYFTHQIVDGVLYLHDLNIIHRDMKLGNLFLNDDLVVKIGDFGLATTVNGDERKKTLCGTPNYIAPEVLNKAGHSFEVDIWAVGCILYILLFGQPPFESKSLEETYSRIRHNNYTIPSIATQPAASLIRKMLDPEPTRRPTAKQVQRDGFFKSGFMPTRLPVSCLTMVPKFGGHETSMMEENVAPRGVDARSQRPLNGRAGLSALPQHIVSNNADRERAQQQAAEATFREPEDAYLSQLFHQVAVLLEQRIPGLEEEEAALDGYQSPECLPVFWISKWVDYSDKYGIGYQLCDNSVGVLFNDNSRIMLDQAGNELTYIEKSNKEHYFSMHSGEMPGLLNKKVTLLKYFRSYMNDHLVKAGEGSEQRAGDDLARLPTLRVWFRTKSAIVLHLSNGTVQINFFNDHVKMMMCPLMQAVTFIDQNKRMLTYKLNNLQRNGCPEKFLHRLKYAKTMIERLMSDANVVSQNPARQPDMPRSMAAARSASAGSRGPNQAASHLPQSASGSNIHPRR

LET-23, sequence (P24348 866-1191): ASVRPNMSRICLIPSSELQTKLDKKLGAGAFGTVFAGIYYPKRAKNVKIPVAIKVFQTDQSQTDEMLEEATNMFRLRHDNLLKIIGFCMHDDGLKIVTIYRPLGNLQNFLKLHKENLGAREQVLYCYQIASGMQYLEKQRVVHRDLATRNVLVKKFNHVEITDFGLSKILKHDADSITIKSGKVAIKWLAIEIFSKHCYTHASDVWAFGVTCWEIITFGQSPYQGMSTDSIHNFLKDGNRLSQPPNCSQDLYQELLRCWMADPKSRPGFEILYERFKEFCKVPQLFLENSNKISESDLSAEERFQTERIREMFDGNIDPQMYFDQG

Row | SMILES | continuous enzyme-coupled kinase assay on lipid vesicles, percent inhibition (LET-23) | IC50 (PLK-1) [nM]
1 | [O-][S+]1CCN(Cc2ccc(-c3ccc4ncnc(Nc5ccc(OCc6ccccc6)c(Cl)c5)c4c3)o2)CC1 [GW583373A] | The ATOP and 4AQ scaffold compounds tested were able to inhibit LET-23 kinase activity | –
2 | C[C@@H](Oc1cc(-n2cnc3cc(-c4ccncc4)ccc32)sc1C(N)=O)c1ccccc1Cl [GSK479719A] | – | 39
3 | C[C@@H](Oc1cc(-n2cnc3ccc(-c4ccncc4)cc32)sc1C(N)=O)c1ccccc1Cl [GSK483724A] | – | 91
4 | CS(=O)(=O)CCNCc1ccc(-c2ccc3ncnc(Nc4ccc(OCc5cccc(F)c5)c(C(F)(F)F)c4)c3c2)o1 [GW576484X] | The ATOP and 4AQ scaffold compounds tested were able to inhibit LET-23 kinase activity | –
